Usually pIC50 stands for the negative decadic logarithm of the IC50, by convention in mol/L.

Structures are written as SMILES. pIC50: −log10 of the molar value.

For test [1], the target named is RET (Homo sapiens (Human), UniProt P07949). Nature of the test: RET enzyme assay (CisBio HTRF kinEASE). It counts as biochemical. The conditions noted are these: RET/KDR enzyme and cell assays. On the technique in general: In TR-FRET formats the signal depends on donor and acceptor labels being close together.
Sequence of RET (P07949 658-1114): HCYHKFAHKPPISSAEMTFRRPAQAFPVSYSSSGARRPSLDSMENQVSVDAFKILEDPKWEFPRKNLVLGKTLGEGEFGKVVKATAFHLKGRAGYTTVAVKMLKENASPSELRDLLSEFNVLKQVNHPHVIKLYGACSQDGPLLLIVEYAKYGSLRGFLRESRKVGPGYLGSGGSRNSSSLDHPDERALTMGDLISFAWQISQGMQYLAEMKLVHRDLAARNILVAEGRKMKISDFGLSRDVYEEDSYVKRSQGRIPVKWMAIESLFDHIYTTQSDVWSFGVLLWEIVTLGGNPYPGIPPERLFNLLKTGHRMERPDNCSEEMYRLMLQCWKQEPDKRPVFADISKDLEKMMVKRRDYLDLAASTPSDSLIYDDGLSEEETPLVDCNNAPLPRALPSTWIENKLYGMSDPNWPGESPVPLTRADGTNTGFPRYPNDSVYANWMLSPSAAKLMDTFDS
The target in test [2] is BaF3 cells expressing KIF5B-RET (Homo sapiens, UniProt P07949). The test can be described thus: BaF3 cell assay, KIF5B-RET (CellTiter-Glo viability). Type of test: cell-based. Conditions: 48 hours incubation.
Sequence of BaF3 cells expressing KIF5B-RET (P07949 29-1114 limits assumed, change not shown): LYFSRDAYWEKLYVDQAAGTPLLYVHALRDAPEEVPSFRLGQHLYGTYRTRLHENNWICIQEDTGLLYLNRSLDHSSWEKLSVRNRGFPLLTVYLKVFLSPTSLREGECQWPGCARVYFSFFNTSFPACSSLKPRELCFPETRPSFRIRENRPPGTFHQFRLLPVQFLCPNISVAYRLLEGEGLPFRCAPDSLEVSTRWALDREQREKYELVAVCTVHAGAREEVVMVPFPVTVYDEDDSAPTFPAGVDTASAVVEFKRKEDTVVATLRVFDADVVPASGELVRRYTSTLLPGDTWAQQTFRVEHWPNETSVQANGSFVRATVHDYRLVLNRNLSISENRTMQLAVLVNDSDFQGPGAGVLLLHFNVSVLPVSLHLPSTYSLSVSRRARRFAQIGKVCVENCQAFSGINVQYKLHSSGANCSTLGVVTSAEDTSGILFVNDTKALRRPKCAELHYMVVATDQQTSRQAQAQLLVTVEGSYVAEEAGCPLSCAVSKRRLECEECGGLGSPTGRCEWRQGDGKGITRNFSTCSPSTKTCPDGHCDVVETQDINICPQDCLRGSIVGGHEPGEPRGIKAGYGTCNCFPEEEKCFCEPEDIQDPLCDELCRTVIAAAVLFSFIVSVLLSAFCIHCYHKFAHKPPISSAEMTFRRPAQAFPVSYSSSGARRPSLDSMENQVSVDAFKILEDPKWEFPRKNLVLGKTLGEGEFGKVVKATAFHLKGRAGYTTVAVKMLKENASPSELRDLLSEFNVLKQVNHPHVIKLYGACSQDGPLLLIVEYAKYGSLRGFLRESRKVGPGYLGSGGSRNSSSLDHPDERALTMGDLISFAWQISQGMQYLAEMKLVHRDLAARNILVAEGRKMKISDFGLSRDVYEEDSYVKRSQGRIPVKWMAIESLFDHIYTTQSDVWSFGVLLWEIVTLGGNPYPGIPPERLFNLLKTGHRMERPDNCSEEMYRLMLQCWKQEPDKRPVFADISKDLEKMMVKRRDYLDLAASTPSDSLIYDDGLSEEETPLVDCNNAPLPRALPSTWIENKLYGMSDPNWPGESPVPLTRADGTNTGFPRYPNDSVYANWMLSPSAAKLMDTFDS
Test [3] deals with BaF3 cells expressing KDR (Homo sapiens, UniProt P35968, cells depend on it, form not given). The conditions noted are these: read-out: KDR Cell IC50; 48 hours incubation.
Sequence of BaF3 cells expressing KDR (P35968 20-1356 limits assumed, stated change not applied): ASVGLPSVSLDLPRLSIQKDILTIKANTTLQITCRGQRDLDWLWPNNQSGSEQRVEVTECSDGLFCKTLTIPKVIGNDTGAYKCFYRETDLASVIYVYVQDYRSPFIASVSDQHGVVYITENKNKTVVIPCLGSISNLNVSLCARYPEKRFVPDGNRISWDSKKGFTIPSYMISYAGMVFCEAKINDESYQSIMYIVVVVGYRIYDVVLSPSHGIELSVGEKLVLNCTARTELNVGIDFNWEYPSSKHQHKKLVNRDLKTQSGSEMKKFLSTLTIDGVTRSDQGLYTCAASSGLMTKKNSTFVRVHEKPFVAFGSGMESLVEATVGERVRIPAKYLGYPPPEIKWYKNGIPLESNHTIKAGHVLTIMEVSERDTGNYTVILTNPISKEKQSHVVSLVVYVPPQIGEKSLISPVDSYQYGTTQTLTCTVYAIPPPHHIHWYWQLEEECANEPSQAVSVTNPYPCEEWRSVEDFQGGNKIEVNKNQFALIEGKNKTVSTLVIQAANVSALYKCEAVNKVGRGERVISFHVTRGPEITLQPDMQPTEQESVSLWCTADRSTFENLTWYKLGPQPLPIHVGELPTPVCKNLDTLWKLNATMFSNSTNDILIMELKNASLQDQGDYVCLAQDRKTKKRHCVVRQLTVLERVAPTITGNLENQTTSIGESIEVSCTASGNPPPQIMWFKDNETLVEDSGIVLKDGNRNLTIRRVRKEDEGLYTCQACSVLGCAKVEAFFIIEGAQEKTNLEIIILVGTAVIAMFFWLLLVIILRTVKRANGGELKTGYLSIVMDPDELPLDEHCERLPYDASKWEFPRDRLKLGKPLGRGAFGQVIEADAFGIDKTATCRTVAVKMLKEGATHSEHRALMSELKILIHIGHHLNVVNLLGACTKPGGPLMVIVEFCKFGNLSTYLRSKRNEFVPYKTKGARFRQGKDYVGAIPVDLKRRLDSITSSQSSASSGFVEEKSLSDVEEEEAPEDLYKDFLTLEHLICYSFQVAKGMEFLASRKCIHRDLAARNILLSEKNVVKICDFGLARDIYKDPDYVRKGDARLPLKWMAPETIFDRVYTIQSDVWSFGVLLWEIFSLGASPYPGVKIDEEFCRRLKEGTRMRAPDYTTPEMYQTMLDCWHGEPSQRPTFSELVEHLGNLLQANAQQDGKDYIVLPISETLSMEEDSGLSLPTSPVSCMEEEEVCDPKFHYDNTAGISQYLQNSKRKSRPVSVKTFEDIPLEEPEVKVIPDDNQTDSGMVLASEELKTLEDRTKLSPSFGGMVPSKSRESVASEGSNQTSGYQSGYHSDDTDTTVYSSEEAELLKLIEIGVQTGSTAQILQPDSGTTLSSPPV
Test [4] deals with KDR (Homo sapiens (Human), UniProt P35968). Nature of the test: KDR enzyme assay (CisBio HTRF kinEASE). Type of test: biochemical. Conditions: ATP at Km, 15 mins pre-incubation.
Sequence of KDR (P35968 790-1356): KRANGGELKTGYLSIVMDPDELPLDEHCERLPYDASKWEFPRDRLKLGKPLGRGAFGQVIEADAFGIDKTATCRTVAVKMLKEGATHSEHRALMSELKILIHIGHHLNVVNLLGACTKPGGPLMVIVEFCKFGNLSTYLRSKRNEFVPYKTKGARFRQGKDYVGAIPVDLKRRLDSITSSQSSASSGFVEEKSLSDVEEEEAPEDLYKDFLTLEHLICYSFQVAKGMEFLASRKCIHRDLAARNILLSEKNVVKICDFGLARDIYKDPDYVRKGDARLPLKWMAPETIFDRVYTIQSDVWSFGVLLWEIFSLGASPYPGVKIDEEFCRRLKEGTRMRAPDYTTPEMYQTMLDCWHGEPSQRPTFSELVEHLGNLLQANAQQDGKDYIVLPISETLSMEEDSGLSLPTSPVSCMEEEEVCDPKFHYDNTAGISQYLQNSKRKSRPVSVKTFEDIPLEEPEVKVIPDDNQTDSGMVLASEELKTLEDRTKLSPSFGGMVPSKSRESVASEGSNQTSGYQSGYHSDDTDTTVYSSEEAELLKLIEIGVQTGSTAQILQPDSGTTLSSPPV

On to `CC(C)(C)n1nc(-c2ccc3cc(C(=O)O)[nH]c3c2)c2c(N)ncnc21` [6-(4-amino-1-tert-butyl-pyrazolo[3,4-d]pyrimidin-3-yl)-1H-indole-2-carboxylic acid], for which the “desired activity in the assays described in Example 51” value (shortened to “desired activity”) in test [1] is “did not exhibit the desired activity”.
As for `CC(C)(C)n1nc(-c2ccc3cc(C(=O)Nc4nnc(C(F)(F)F)s4)[nH]c3c2)c2c(N)ncnc21` [6-(4-amino-1-tert-butyl-pyrazolo[3,4-d]pyrimidin-3-yl)-N-[5-(trifluoromethyl)-1,3,4-thiadiazol-2-yl]-1H-indole-2-carboxamide], the “desired activity” value in test [1] is “did not exhibit the desired activity”.
Still for that read-out and setting: the value for `CNC(=O)c1cc2ccc(-c3n[nH]c4ncnc(N)c34)cc2[nH]1` [6-(4-amino-1H-pyrazolo[3,4-d]pyrimidin-3-yl)-N-methyl-1H-indole-2-carboxamide] was “did not exhibit the desired activity”; that for `CNC(=O)c1cc2ccc(-c3nn(CCO)c4ncnc(N)c34)cc2[nH]1` [6-[4-amino-1-(2-hydroxyethyl)pyrazolo[3,4-d]pyrimidin-3-yl]-N-methyl-1H-indole-2-carboxamide] was “did not exhibit the desired activity”; that for `CNC(=O)c1cc2ccc(-c3nn(CC(=O)N(C)C)c4ncnc(N)c34)cc2[nH]1` [6-[4-amino-1-[2-(dimethylamino)-2-oxo-ethyl]pyrazolo[3,4-d]pyrimidin-3-yl]-N-methyl-1H-indole-2-carboxamide] was “did not exhibit the desired activity”.
For `CNC(=O)c1cc2ccc(-c3nn(CCC(=O)N(C)C)c4ncnc(N)c34)cc2[nH]1` [6-[4-amino-1-[3-(dimethylamino)-3-oxo-propyl]pyrazolo[3,4-d]pyrimidin-3-yl]-N-methyl-1H-indole-2-carboxamide], the “desired activity” value in test [1] is recorded as “did not exhibit the desired activity”.
As to `CC(C)(C)n1nc(-c2ccc3cc(C(=O)Nc4nccs4)[nH]c3c2)c2c(N)ncnc21` [Example 1, 6-(4-Amino-1-tert-butyl-pyrazolo[3,4-d]pyrimidin-3-yl)-N-thiazol-2-yl-1H-indole-2-carboxamide], the pIC50 in test [2] is 7.08.
For the compound `CC(C)(C)n1nc(-c2ccc3cc(C(=O)NCC(F)(F)F)[nH]c3c2)c2c(N)ncnc21` [Example 11, 6-(4-Amino-1-tert-butyl-pyrazolo[3,4-d]pyrimidin-3-yl)-N-(2,2,2-trifluoroethyl)-1H-indole-2-carboxamide], the figures for the negative-log IC50 (pIC50) in test [3] and in test [4] were 5.37 and 3.82, respectively.
Consider `Cc1csc(NC(=O)c2cc3ccc(-c4nn(C(C)(C)C)c5ncnc(N)c45)cc3[nH]2)n1` [Example 26, 6-(4-Amino-1-tert-butyl-pyrazolo[3,4-d]pyrimidin-3-yl)-N-(4-methylthiazol-2-yl)-1H-indole-2-carboxamide], for which the negative-log IC50 (pIC50) in test [2] is 6.04.
With `CC(C)n1nc(-c2ccc3cc(C(=O)Nc4nccs4)[nH]c3c2)c2c(N)ncnc21` [Example 37, 6-(4-Amino-1-isopropyl-pyrazolo[3,4-d]pyrimidin-3-yl)-N-thiazol-2-yl-1H-indole-2-carboxamide], the negative-log IC50 (pIC50) in test [3] was 6.15.
In turn, `CNC(=O)c1cc2ccc(-c3nn(C4CC4)c4ncnc(N)c34)cc2[nH]1` [Example 50, 6-(4-Amino-1-cyclopropyl-pyrazolo[3,4-d]pyrimidin-3-yl)-N-methyl-1H-indole-2-carboxamide] showed a pIC50 in test [2] of 6.65.
Take `CCNC(=O)c1cc2ccc(-c3nn([C@H]4CC[C@@H](O)C4)c4ncnc(NC)c34)cc2[nH]1` [N-ethyl-6-[1-[(1 S,3R)-3-hydroxycyclopentyl]-4-(methylamino)pyrazolo[3,4-d]pyrimidin-3-yl]-1H-indole-2-carboxamide]: the “desired activity” value in test [1] is on record as “did not exhibit the desired activity”.

The values are drawn from patent US11352361B2, “Compounds useful as RET inhibitors” (Cancer Research Technology Limited, priority 2017, dated 2022).
